Experimental data published in patent publication US9695155B2, “Herbicidal substituted pyrimidinyloxy benzene compounds” (E. I. DU PONT DE NEMOURS AND COMPANY, priority 2013, dated 2017).

Experiments:
Experiment in all cases: Test E preemergence
[1] = tested on: johnsongrass; type: in vivo, Sorghum halepense; settings: for Johnsongrass plant response rating: scale 0 to 100 (0 no effect, 100 complete control); for Plant response rating, Johnsongrass: scale 0 to 100, 0 no effect, 100 complete control
Description: (§1) Seeds of plant species selected from corn (Zea mays), soybean (Glycine max), velvetleaf (Abutilon theophrasti), lambsquarters (Chenopodium album), wild poinsettia (Euphorbia heterophylla), palmer pigweed (Amaranthus palmeri), waterhemp (common waterhemp, Amaranthus rudis), surinam grass (Brachiaria decumbens), large (Lg) crabgrass (Digitaria sanguinalis), Brazilian crabgrass (Digitaria horizontalis), fall panicum (Panicum dichotomiflorum), giant foxtail (Setaria faberii), green foxtail (Setaria viridis), goosegrass (Eleusine indica), johnsongrass (Sorghum halepense), ragweed (common ragweed, Ambrosia elatior), barnyardgrass (Echinochloa crus-galli), sandbur (southern sandbur, Cenchrus echinatus), arrowleaf sida (Sida rhombifolia), Italian ryegrass (Lolium multiflorum), dayflower (Virginia (VA) dayflower, Commelina virginica), field bindweed (Convolvulus arvensis), morningglory (Ipomoea coccinea), nightshade (eastern black nightshade, Solanum ptycanthum), kochia (Kochia scoparia), yellow nutsedge (Cyperus esculentus), cocklebur (common cocklebur, Xanthium strumarium), smartweed (ladysthumb smartweed, and hairy beggarticks (Bidens pilosa), were planted into a silt loam soil and treated preemergence with test chemicals formulated in a non-phytotoxic solvent mixture which included a surfactant.
(§2) At the same time, plants from these crop and weed species and also horseweed (Canada horseweed, Conyza canadensis), waterhemp_RES1, (ALS & Triazine resistant common waterhemp, Amaranthus rudis), and waterhemp_RES2, (ALS & HPPD resistant common waterhemp, Amaranthus rudis) were planted in pots containing Redi-Earth® planting medium (Scotts Company, 14111 Scottslawn Road, Marysville, Ohio 43041) comprising spaghnum peat moss, vermiculite, wetting agent and starter nutrients were treated with postemergence applications of test chemicals formulated in the same manner. Plants ranged in height from 2 to 18 cm for postemergence treatments (1- to 4-leaf stage). Treated plants and controls were maintained in a greenhouse for 14 to 21 days, after which time all species were compared to controls and visually evaluated. Plant response ratings, summarized in Table E, are based on a scale of 0 to 100 where 0 is no effect and 100 is complete control. A dash (-) response means no test result.

[2] = tested on: kochia; type: in vivo, Kochia scoparia; settings: for Kochia plant response rating: scale 0 to 100 (0 no effect, 100 complete control); for Plant response rating, Kochia: scale 0 to 100, 0 no effect, 100 complete control
Description: as §1, §2

[3] = tested on: giant foxtail; type: in vivo, Setaria faberii; settings: for Foxtail, Giant plant response rating: scale 0 to 100 (0 no effect, 100 complete control); for Plant response rating, Foxtail, Giant: scale 0 to 100, 0 no effect, 100 complete control
Description: as §1, §2

[4] = tested on: field bindweed; type: in vivo, Convolvulus arvensis; settings: for Field Bindweed plant response rating: scale 0 to 100 (0 no effect, 100 complete control); for Plant response rating, Field Bindweed: scale 0 to 100, 0 no effect, 100 complete control
Description: as §1, §2

[5] = tested on: Italian ryegrass; type: in vivo, Lolium multiflorum; settings: for Ryegrass, Italian plant response rating: scale 0 to 100 (0 no effect, 100 complete control); for Plant response rating, Ryegrass, Italian: scale 0 to 100, 0 no effect, 100 complete control
Description: as §1, §2

[6] = tested on: nightshade; type: in vivo, Solanum ptycanthum; settings: for Nightshade plant response rating: scale 0 to 100 (0 no effect, 100 complete control); for Plant response rating, Nightshade: scale 0 to 100, 0 no effect, 100 complete control
Description: as §1, §2

[7] = tested on: morningglory; type: in vivo, Ipomoea coccinea; settings: for Morningglory plant response rating: scale 0 to 100 (0 no effect, 100 complete control); for Plant response rating, Morningglory: scale 0 to 100, 0 no effect, 100 complete control
Description: as §1, §2

[8] = tested on: waterhemp; type: in vivo, Amaranthus rudis; settings: for Waterhemp plant response rating: scale 0 to 100 (0 no effect, 100 complete control); for Plant response rating, Waterhemp: scale 0 to 100, 0 no effect, 100 complete control
Description: as §1, §2

[9] = tested on: goosegrass; type: in vivo, Eleusine indica; settings: for Goosegrass plant response rating: scale 0 to 100 (0 no effect, 100 complete control); for Plant response rating, Goosegrass: scale 0 to 100, 0 no effect, 100 complete control
Description: as §1, §2

[10] = tested on: corn; type: in vivo, Zea mays; settings: for Corn plant response rating: scale 0 to 100 (0 no effect, 100 complete control); for Plant response rating, Corn: scale 0 to 100, 0 no effect, 100 complete control
Description: as §1, §2

[11] = tested on: hairy beggarticks; type: in vivo, Bidens pilosa; settings: for Beggarticks plant response rating: scale 0 to 100 (0 no effect, 100 complete control); for Plant response rating, Beggarticks: scale 0 to 100, 0 no effect, 100 complete control
Description: as §1, §2

N#Cc1cccc(Oc2ncc(Br)cn2)c1-n1cc(C(F)(F)F)cn1 [Compound 59, 3-[(5-bromo-2-pyrimidinyl)oxy]-2-[4-(trifluoromethyl)-1H-pyrazol-1-yl]benzonitrile]
60: Johnsongrass plant response rating ([1]; 62 g ai/ha) | Field Bindweed plant response rating ([4]; 62 g ai/ha) | Plant response rating, Field Bindweed ([4]; 125 g ai/ha)
85: Foxtail, Giant plant response rating ([3]; 62 g ai/ha)
10: Foxtail, Giant plant response rating ([3]; 31 g ai/ha)
30: Plant response rating, Corn ([10]; 125 g ai/ha)
25: Goosegrass plant response rating ([9]; 31 g ai/ha) | Plant response rating, Beggarticks ([11]; preemergence, 250 g ai/ha)
98: Plant response rating, Goosegrass ([9]; 125 g ai/ha) | Plant response rating, Goosegrass ([9]; 250 g ai/ha)
75: Plant response rating, Johnsongrass ([1]; 125 g ai/ha) | Plant response rating, Ryegrass, Italian ([5]; 125 g ai/ha) | Plant response rating, Morningglory ([7]; 125 g ai/ha)
50: Ryegrass, Italian plant response rating ([5]; 62 g ai/ha) | Nightshade plant response rating ([6]; 31 g ai/ha) | Plant response rating, Corn ([10]; 250 g ai/ha)
100: Plant response rating, Johnsongrass ([1]; 250 g ai/ha) | Kochia plant response rating ([2]; 62 g ai/ha) | Plant response rating, Kochia ([2]; 125 g ai/ha) | Plant response rating, Kochia ([2]; 250 g ai/ha) | Plant response rating, Foxtail, Giant ([3]; 125 g ai/ha) | Plant response rating, Foxtail, Giant ([3]; 250 g ai/ha) | Plant response rating, Field Bindweed ([4]; 250 g ai/ha) | Plant response rating, Nightshade ([6]; 125 g ai/ha) | Plant response rating, Nightshade ([6]; 250 g ai/ha) | Plant response rating, Morningglory ([7]; 250 g ai/ha) | Waterhemp plant response rating ([8]; 16 g ai/ha) | Waterhemp plant response rating ([8]; 31 g ai/ha) | Waterhemp plant response rating ([8]; 62 g ai/ha) | Plant response rating, Waterhemp ([8]; 125 g ai/ha) | Plant response rating, Waterhemp ([8]; 250 g ai/ha)
0: Johnsongrass plant response rating ([1]; 16 g ai/ha) | Johnsongrass plant response rating ([1]; 31 g ai/ha) | Field Bindweed plant response rating ([4]; 16 g ai/ha) | Ryegrass, Italian plant response rating ([5]; 16 g ai/ha) | Ryegrass, Italian plant response rating ([5]; 31 g ai/ha) | Nightshade plant response rating ([6]; 16 g ai/ha) | Morningglory plant response rating ([7]; 16 g ai/ha) | Corn plant response rating ([10]; 16 g ai/ha) | Corn plant response rating ([10]; 31 g ai/ha) | Corn plant response rating ([10]; 62 g ai/ha) | Beggarticks plant response rating ([11]; 16 g ai/ha, preemergence) | Beggarticks plant response rating ([11]; 31 g ai/ha, preemergence) | Plant response rating, Beggarticks ([11]; Preemergence, 62 g ai/ha) | Plant response rating, Beggarticks ([11]; preemergence, 125 g ai/ha)
65: Morningglory plant response rating ([7]; 62 g ai/ha) | Goosegrass plant response rating ([9]; 62 g ai/ha)
20: Kochia plant response rating ([2]; 16 g ai/ha)
95: Plant response rating, Ryegrass, Italian ([5]; 250 g ai/ha)
5: Foxtail, Giant plant response rating ([3]; 16 g ai/ha) | Field Bindweed plant response rating ([4]; 31 g ai/ha)
15: Morningglory plant response rating ([7]; 31 g ai/ha) | Goosegrass plant response rating ([9]; 16 g ai/ha)
80: Kochia plant response rating ([2]; 31 g ai/ha)
90: Nightshade plant response rating ([6]; 62 g ai/ha)

N#Cc1cnn(-c2c(C#N)cccc2Oc2ncc(F)cn2)c1 [Compound 111]
10: Kochia plant response rating ([2]; 31 g ai/ha)
65: Nightshade plant response rating ([6]; 16 g ai/ha) | Waterhemp plant response rating ([8]; 31 g ai/ha) | Plant response rating, Goosegrass ([9]; 125 g ai/ha)
40: Goosegrass plant response rating ([9]; 62 g ai/ha)
75: Morningglory plant response rating ([7]; 62 g ai/ha) | Plant response rating, Morningglory ([7]; 125 g ai/ha)
20: Plant response rating, Ryegrass, Italian ([5]; 125 g ai/ha) | Morningglory plant response rating ([7]; 16 g ai/ha) | Beggarticks plant response rating ([11]; 16 g ai/ha, preemergence)
100: Plant response rating, Foxtail, Giant ([3]; 125 g ai/ha) | Plant response rating, Waterhemp ([8]; 125 g ai/ha)
70: Plant response rating, Johnsongrass ([1]; 125 g ai/ha) | Foxtail, Giant plant response rating ([3]; 62 g ai/ha)
5: Goosegrass plant response rating ([9]; 31 g ai/ha)
30: Beggarticks plant response rating ([11]; 31 g ai/ha, preemergence)
35: Morningglory plant response rating ([7]; 31 g ai/ha)
95: Kochia plant response rating ([2]; 62 g ai/ha) | Plant response rating, Kochia ([2]; 125 g ai/ha) | Plant response rating, Nightshade ([6]; 125 g ai/ha)
80: Plant response rating, Field Bindweed ([4]; 125 g ai/ha) | Nightshade plant response rating ([6]; 62 g ai/ha) | Waterhemp plant response rating ([8]; 62 g ai/ha) | Plant response rating, Beggarticks ([11]; preemergence, 125 g ai/ha)
0: Johnsongrass plant response rating ([1]; 16 g ai/ha) | Johnsongrass plant response rating ([1]; 31 g ai/ha) | Kochia plant response rating ([2]; 16 g ai/ha) | Foxtail, Giant plant response rating ([3]; 16 g ai/ha) | Foxtail, Giant plant response rating ([3]; 31 g ai/ha) | Ryegrass, Italian plant response rating ([5]; 16 g ai/ha) | Ryegrass, Italian plant response rating ([5]; 31 g ai/ha) | Ryegrass, Italian plant response rating ([5]; 62 g ai/ha) | Waterhemp plant response rating ([8]; 16 g ai/ha) | Goosegrass plant response rating ([9]; 16 g ai/ha) | Corn plant response rating ([10]; 16 g ai/ha) | Corn plant response rating ([10]; 31 g ai/ha) | Corn plant response rating ([10]; 62 g ai/ha)
50: Nightshade plant response rating ([6]; 31 g ai/ha)
60: Field Bindweed plant response rating ([4]; 62 g ai/ha) | Plant response rating, Beggarticks ([11]; Preemergence, 62 g ai/ha)
15: Johnsongrass plant response rating ([1]; 62 g ai/ha) | Field Bindweed plant response rating ([4]; 16 g ai/ha) | Field Bindweed plant response rating ([4]; 31 g ai/ha) | Plant response rating, Corn ([10]; 125 g ai/ha)
